In the assay the target is T1, hNaV1.7 (Homo sapiens, UniProt Q15858).
T1 construct: expressed in transfected cells; host or cells: HEK293
Kind of assay: QPatch NaV1.7 assay. The format is cell-based. To be noted: HEK293-hNaV1.7 cells, QPatch16x. Here is the method: The compounds of the invention were tested in a QPatch NaV1.7 assay.
HEK293-hNaV1.7 cells were grown in DMEM-F12+10% FBS culture media at 37° C. At a confluency of 50-70% cells were dissociated from culture flasks & triturated to ensure unicellular cell suspension; cell density was measured & adjusted to 2-3×10^6 cells/ml. Recordings were obtained using QPatch16x. The external solution was (in mM): NaCl, 128; KCl, 5; MgCl2, 2; CaCl2, 2; Glucose, 30; HEPES, 15; pH 7.3, 305-315 mOsm. Following seal formation and whole-cell access using internal solution (containing in mM: CsF, 135; EGTA/CsOH, 1/5; HEPES 10; NaCl, 10; pH 7.3, 310-320mOsM), voltage pulse protocols were applied. Initially a steady state inactivation voltage protocol was used to determine the half-maximal voltage for steady state inactivation (V1/2 SSI). Two holding voltages were used to determine test drug inhibition: −90 mV, where most of the channels are in a closed state; and V1/2 SSI, where half of the channels are inactivated. Currents were elicited every 10 seconds by stepping to a membrane potential of 0 mV for 20 ms. Four-point cumulative concentration responses were derived by determining the peak current amplitude at each concentration of test drug over 120 second application. Curves were fitted with the Hill equation yielding pIC50 values at −90 mV and V1/2 SSI holding potentials.
(In patch-clamp work, channel activity is measured electrically.)

[1] abbreviates: holding voltage V1/2 SSI, where half of the channels are inactivated, read-out: QP Nav1.7 SSI vhalf pIC50 (converted).
Setting [2] is: holding voltage −90 mV, where most of the channels are in a closed state, read-out: QP Nav1.7 - 90 mV pIC50 (converted).

Counter-ions that a name gives are not always drawn. Like-named read-outs stand apart in the source and are kept apart here.

T1 sequence (Q15858 whole entry): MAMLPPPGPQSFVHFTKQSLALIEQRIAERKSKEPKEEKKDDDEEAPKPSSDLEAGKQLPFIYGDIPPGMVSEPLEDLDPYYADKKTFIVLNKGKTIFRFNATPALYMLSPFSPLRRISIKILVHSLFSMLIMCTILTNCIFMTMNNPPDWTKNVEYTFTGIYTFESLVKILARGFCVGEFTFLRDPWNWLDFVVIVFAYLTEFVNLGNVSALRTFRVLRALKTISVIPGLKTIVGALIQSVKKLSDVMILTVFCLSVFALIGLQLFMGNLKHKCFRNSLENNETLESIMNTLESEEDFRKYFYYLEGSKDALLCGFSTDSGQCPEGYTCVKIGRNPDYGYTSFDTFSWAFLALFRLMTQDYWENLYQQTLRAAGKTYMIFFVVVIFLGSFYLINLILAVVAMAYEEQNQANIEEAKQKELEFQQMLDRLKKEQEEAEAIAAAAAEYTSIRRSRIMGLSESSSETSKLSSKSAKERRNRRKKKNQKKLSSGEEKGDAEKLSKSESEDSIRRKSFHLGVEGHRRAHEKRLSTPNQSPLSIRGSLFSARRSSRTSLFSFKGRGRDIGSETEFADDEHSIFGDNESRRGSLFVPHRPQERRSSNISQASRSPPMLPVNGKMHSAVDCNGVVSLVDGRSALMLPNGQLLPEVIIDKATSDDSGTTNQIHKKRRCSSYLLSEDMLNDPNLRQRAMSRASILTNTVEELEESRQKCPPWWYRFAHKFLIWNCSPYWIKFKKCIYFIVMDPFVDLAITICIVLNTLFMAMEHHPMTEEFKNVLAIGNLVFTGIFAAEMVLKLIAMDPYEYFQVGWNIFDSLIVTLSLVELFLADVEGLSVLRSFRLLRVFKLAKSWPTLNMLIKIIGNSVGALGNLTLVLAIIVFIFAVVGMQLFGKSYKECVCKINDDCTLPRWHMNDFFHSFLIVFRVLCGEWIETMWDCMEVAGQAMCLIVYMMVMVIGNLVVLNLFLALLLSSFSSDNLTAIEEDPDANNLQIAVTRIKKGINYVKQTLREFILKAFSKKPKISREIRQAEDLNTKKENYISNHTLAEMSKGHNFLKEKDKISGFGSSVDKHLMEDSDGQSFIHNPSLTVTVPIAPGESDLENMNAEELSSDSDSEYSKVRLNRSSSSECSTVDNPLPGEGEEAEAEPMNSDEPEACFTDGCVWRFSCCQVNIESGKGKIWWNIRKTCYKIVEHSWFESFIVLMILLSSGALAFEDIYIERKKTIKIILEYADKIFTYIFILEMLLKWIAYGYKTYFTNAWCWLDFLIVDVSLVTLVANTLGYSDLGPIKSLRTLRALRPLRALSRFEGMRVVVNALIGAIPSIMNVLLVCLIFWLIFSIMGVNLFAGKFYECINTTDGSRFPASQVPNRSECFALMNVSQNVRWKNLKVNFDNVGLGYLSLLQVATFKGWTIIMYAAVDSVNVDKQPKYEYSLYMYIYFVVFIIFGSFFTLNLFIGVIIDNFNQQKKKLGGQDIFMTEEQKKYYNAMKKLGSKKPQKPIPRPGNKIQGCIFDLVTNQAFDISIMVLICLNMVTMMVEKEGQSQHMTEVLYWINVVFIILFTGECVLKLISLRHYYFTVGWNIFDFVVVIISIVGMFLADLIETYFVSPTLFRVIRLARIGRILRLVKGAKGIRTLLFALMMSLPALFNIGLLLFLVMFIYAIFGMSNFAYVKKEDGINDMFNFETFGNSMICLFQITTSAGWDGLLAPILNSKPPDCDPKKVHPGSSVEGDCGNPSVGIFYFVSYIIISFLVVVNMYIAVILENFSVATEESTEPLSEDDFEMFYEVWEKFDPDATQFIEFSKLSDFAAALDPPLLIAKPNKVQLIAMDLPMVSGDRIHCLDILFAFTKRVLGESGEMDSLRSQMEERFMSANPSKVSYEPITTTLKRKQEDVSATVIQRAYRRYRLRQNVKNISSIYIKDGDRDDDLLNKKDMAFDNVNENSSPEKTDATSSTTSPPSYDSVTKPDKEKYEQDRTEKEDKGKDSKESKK

Consider `Cc1cc(-c2ccc(OC(F)(F)F)cc2)nc([C@H]2CC[C@@]3(CCN(C)C3=O)N2)n1` [Example 27, (2R,5S)-7-Methyl-2-[4-methyl-6-[4-(trifluoromethoxy)phenyl]pyrimidin-2-yl]-1,7-diazaspiro[4.4]nonan-6-one hydrochloride], for which the IC50 under setting [1] is 10 µM and the IC50 under setting [2] was 63.1 µM.
Taken in the same sequence, the figures for `Cc1cc(-c2ccc(OC(F)(F)F)cc2)nc([C@@H]2CC[C@@]3(CCN(C)C3=O)N2)n1` [Example 28, (2S,5S)-7-Methyl-2-[4-methyl-6-[4-(trifluoromethoxy)phenyl]pyrimidin-2-yl]-1,7-diazaspiro[4.4]nonan-6-one hydrochloride] were 50.1 µM and 631 µM.
As for `Cc1cc(-c2ccc(OC(F)(F)F)cc2)nc([C@@H]2CC[C@]3(CCN(C)C3=O)N2)n1` [Example 29, (2S,5R)-7-Methyl-2-[4-methyl-6-[4-(trifluoromethoxy)phenyl]pyrimidin-2-yl]-1,7-diazaspiro[4.4]nonan-6-one hydrochloride], the IC50 under setting [1] is 12.6 µM and the IC50 under setting [2] is 126 µM.
Taken in the same sequence, the figures for `Cc1cc(-c2ccc(OC(F)(F)F)cc2)nc([C@H]2CC[C@]3(CCN(C)C3=O)N2)n1` [Example 30, (2R,5R)-7-Methyl-2-[4-methyl-6-[4-(trifluoromethoxy)phenyl]pyrimidin-2-yl]-1,7-diazaspiro[4.4]nonan-6-one hydrochloride] were 20 µM and 316 µM.
As to `Cc1cc(-c2cc(OC(F)(F)F)ccc2F)nc([C@@H]2CC[C@@]3(CCN(C)C3=O)N2)n1` [Example 31, (2S,5S)-2-[4-[2-Fluoro-5-(trifluoromethoxy)phenyl]-6-methyl-pyrimidin-2-yl]-7-methyl-1,7-diazaspiro[4.4]nonan-6-one hydrochloride], the IC50 is 3.16 µM under setting [1] and 100 µM under setting [2].
For the compound `Cc1cc(-c2cc(OC(F)(F)F)ccc2F)nc([C@H]2CC[C@@]3(CCN(C)C3=O)N2)n1` [Example 32, (2R,5S)-2-[4-[2-Fluoro-5-(trifluoromethoxy)phenyl]-6-methyl-pyrimidin-2-yl]-7-methyl-1,7-diazaspiro[4.4]nonan-6-one hydrochloride], the IC50 was 2.51 µM under setting [1] and 39.8 µM under setting [2].
Taken in the same sequence, the figures for `Cc1cc(-c2cc(OC(F)(F)F)ccc2F)nc([C@H]2CC[C@]3(CCN(C)C3=O)N2)n1` [Example 33, (2R,5R)-2-[4-[2-Fluoro-5-(trifluoromethoxy)phenyl]-6-methyl-pyrimidin-2-yl]-7-methyl-1,7-diazaspiro[4.4]nonan-6-one hydrochloride] were 2 µM and 20 µM.
For the compound `Cc1cc(-c2cc(OC(F)(F)F)ccc2F)nc([C@@H]2CC[C@]3(CCN(C)C3=O)N2)n1` [Example 34, (2S,5R)-2-[4-[2-Fluoro-5-(trifluoromethoxy)phenyl]-6-methyl-pyrimidin-2-yl]-7-methyl-1,7-diazaspiro[4.4]nonan-6-one hydrochloride], the IC50 runs as follows: under setting [1], 7.94 µM; under setting [2], 79.4 µM.
On the same counts, the results for `CCOc1ccc(F)c(-c2cc(C)nc([C@H]3CC[C@@]4(CCCNC4=O)N3)n2)c1` [Example 37, hydrochloride] are 1.58 µM and 15.8 µM.
Taken in the same sequence, the figures for `CCOc1ccc(F)c(-c2cc(C)nc([C@@H]3CC[C@@]4(CCCNC4=O)N3)n2)c1` [Example 38, hydrochloride] were 3.16 µM and 50.1 µM.
In the case of `Cc1cc(-c2ccc(C(F)(F)F)cc2)nc([C@H]2CC[C@@]3(CCNC3=O)N2)n1` [Example 39, (2R,5S)-2-[4-Methyl-6-[4-(trifluoromethyl)phenyl]pyrimidin-2-yl]-1,7-diazaspiro[4.4]-nonan-6-one hydrochloride], the IC50 is 15.8 µM under setting [1] and 126 µM under setting [2].
Take `Cc1cc(-c2ccc(C(F)(F)F)cc2)nc([C@@H]2CC[C@]3(CCNC3=O)N2)n1` [Example 40, (2S,5R)-2-[4-Methyl-6-[4-(trifluoromethyl)phenyl]-pyrimidin-2-yl]-1,7-diazaspiro[4.4]nonan-6-one hydrochloride]: the IC50 was 31.6 µM under setting [1] and 158 µM under setting [2].
Turning to `Cc1cc(-c2ccc(C(F)(F)F)cc2)nc([C@@H]2CC[C@@]3(CCNC3=O)N2)n1` [Example 41, (2S,5S)-2-[4-Methyl-6-[4(trifluoromethyl)-phenyl]-pyrimidin-2-yl]-1,7-diazaspiro[4.4]nonan-6-one hydrochloride], the IC50 under setting [1] was 2.51 µM and the IC50 under setting [2] was 25.1 µM.
In the case of `Cc1cc(-c2ccc(C(F)(F)F)cc2)nc([C@H]2CC[C@]3(CCNC3=O)N2)n1` [Example 42, (2R,5R)-2-[4-Methyl-6-[4-(trifluoromethyl)phenyl]pyrimidin-2-yl]-1,7-diazaspiro[4.4]nonan-6-one hydrochloride], the IC50 runs as follows: under setting [1], 50.1 µM; under setting [2], 501 µM.
With `Cc1cc(-c2ccc(C(F)(F)F)cc2)nc([C@H]2CC[C@@]3(CC(C)(C)NC3=O)N2)n1` [Example 43, (2R,5S)-8,8-Dimethyl-2-[4-methyl-6-[4-(trifluoromethyl)phenyl]pyrimidin-2-yl]-1,7-diazaspiro[4.4]nonan-6-one hydrochloride], the IC50 is, setting by setting: under setting [1], 5.01 µM; under setting [2], 31.6 µM.
On the same counts, the results for `Cc1cc(-c2ccc(C(F)(F)F)cc2)nc([C@@H]2CC[C@@]3(CC(C)(C)NC3=O)N2)n1` [Example 44, (2S,5S)-8,8-Dimethyl-2-[4-methyl-6-[4-(trifluoromethyl)phenyl]pyrimidin-2-yl]-1,7-diazaspiro[4.4]nonan-6-one hydrochloride] are 39.8 µM and 158 µM.
`Cc1cc(-c2ccc(C(F)(F)F)cc2)nc([C@@H]2CC[C@]3(CC(C)(C)NC3=O)N2)n1` [Example 45, (2S,5R)-8,8-Dimethyl-2-[4-methyl-6-[4-(trifluoromethyl)phenyl]pyrimidin-2-yl]-1,7-diazaspiro[4.4]nonan-6-one hydrochloride]: the IC50 was 20 µM under setting [1] and 100 µM under setting [2].
On the same counts, the results for `Cc1cc(-c2ccc(C(F)(F)F)cc2)nc([C@H]2CC[C@]3(CC(C)(C)NC3=O)N2)n1` [Example 46, (2R,5R)-8,8-Dimethyl-2-[4-methyl-6-[4-(trifluoromethyl)phenyl]pyrimidin-2-yl]-1,7-diazaspiro[4.4]nonan-6-one hydrochloride] are 3.16 µM and 25.1 µM.

Values taken from patent publication US9309254B2, “Pyrimidinyl-diazospiro compounds” (CONVERGENCE PHARMACEUTICALS LIMITED, priority 2012, dated 2016).
